Reference: patent publication US11360104B2, “Microbial-based biosensors” (TRUSTEES OF BOSTON UNIVERSITY, priority 2017, dated 2022)
Where two headings read alike, the source gives them in different places.

Tests used:
PinR = PinR (Nocardioides simplex (Pimelobacter simplex), UniProt A0A0A1DUF2); assay: Cross-reactivity assay of steroids using sensor 3; type: biochemical; conditions: for % cross-reactivity: relative to progesterone; for % cross-reactivity / P (slope of fit): sensor 3, HEPES 1×
Protocol: The cross-reactivity of progesterone regarding the different steroids was calculated with the following equation:
Description for a typical experiment, using a molar ratio of QD/TF/DNA=1/4/18.
50 uL of the sensor (QD/TF/DNA) was then splitted in 3×9 centrifuge tubes to which 10 uL of progesterone at the desired concentration is added. […] A 384 well plate was filled with 60 uL of each solution. The fluorescence intensity was monitored on a spectrofluorimeter from 535 nm to 800 nm exciting at 400 nm, equipped with a 450 nm long-pass filter in emission.

[1] = system: steroid responsive genome island (SRGI); assay: Whole transcriptome RNA-Seq of steroid treated P. simplex; type: cell-based, Pimelobacter simplex; conditions: P. simplex exposed to steroid vs solvent control, Log2 fold change
From the text: (§1) In order to identify steroid binding Transcription Factors, a whole transcriptome RNA sequencing (RNA-Seq) screen was developed (FIG. 7). The growth of Pimelobacter simplex bacteria was profiled with respect to the starting inoculation density, solvent toxicity, and the addition of steroids (FIG. 16). […] P. simplex bacteria were screened against the steroid solvents ethanol (EtOH) and dimethyl sulfoxide (DMSO). […] Steroid growth curves were similarly performed using a starting OD of 0.005 and constant solvent dosing with titrations of steroids. […] P. simplex bacteria were grown in the presence of 700 μM testosterone, 21.88 μM progesterone, 87.50 μM estrone, 21.88 μM 17β-estradiol, 21.88 μM hydrocortisone, or 175.00 μM aldosterone concentrations were selected for comparison.
(§2) Using accession gene tags, genes were annotated for steroid relevant enzymes or transcription factors. […] Allosteric TF binding sequences are often palindromes and typically located near the start of its gene location in an intergenic space. With such a design, the allosteric TF can regulate itself or the open reading frame (ORF) near it in response to its effector molecule. […] Once identified, the TFs were cloned and recombinantly expressed for thorough characterization.
(§3) Cells were grown in 6 mL volumes of media at the OD, solvent, and steroid concentrations found from the growth curves in 14 mL polypropylene round-bottom tubes (Corning #352059) in technical duplicate. The same controls as in the steroid exposure growth curve were used for setting up RNA extraction samples. The cells were incubated at their corresponding temperature with continuous orbital shaking at 150 rpm until the end of lag-phase, mid-log phase, or stationary phase from the start of inoculation. Afterward, samples were removed and a 1:1 ratio of RNAprotect Bacteria Reagent (Qiagen #76506) was added followed by spinning down at 4° C. for 10 minutes at 4000 g. Supernatant was removed and the pellet re-suspended in 300 μL of RNAprotect and transferred into 2.0 mL Safe-Lock Tubes (Eppendorf #3101). The samples were then spun down once again at 4° C. for 10 minutes at 10000 g. Once the supernatant has been removed the samples were placed on ice and ready for RNA extraction. RNA extraction was done by Qiacube (Qiagen #9001292) set to the RNeasy Protect Bacteria Mini Kit protocol of bacterial cell pellet with enzymatic lysis. Tube A was prepared as described except with the addition of 150 mg/mL lysozyme (Sigma-Aldrich #L6876) and 20 mg/mL proteinase K (Roche #03115879001) all diluted in 1xTE buffer. RNA samples were subsequently quantified using Qubit RNA HS Assay Kit (Thermo Fisher Scientific #Q32852) and analyzed using a RNA 6000 Pico Kit (Agilent 5067-1513) in a 2100 Bioanalyzer (Agilent G2939A). RNA samples were either immediately used for RNA-Seq library preparation or stored long-term at −80° C.
(§4) RNA-Seq libraries were then produced from these samples using a slightly modified ScriptSeq v2 RNA-Seq Library Preparation Kit (Illumina 455A/22124) ensuring use of unique index primers through ScriptSeq Index PCR Primers (Sets 1-4) 48 rxns/set (Illumina #SSIP1234).

Pimelobacter simplex = assay: Solvent and steroid exposure growth curves
From the text: as §1
In order to properly determine the doubling time of the strain, growth curves were performed. All growth curves were done in 100 μL per well volumes in 96 well flat clear bottom black polystyrene TC-treated microplates which were individually wrapped with a lid and sterile (Corning #3603). Measurements were done by an Infinite M200 Pro (TECAN) spectrophotometer at the temperature suited for P. simplex. Readings were performed over 96 cycles of 15 minutes each at 600 nm absorbance with 25 flashes in a 3×3 (XY-Line) type reads per well. In between reads there was orbital shaking at 150 rpm frequency for a total of 10 minutes. In order to characterize the growth alone, a ½ serial dilution of 9 concentrations from 0.5-0.0020 OD600 nm were prepared in the respective media. Then each concentration was measured as previously described using a microplate reader (TECAN) and normalized against a media background control in technical triplicate. Afterward, an appropriate starting concentration of cells was chosen with a substantially long lag-phase, linear log phase, and a plateau of stationary-phase.
Once an appropriate starting cell concentration was chosen, a secondary growth curve was performed to test the toxicity levels of the solvents used to dissolve steroids of interest. Since the steroids used are heavily hydrophobic, they often need to be dissolved in organic solvents such as DMSO or ethanol which are toxic to bacteria at high concentrations. P. simplex was incubated under microplate reader conditions previously mentioned at a starting OD determined by the first growth curve with DMSO, ethanol, or H2O at ½ serial dilutions for a total of eight concentrations (50-0.39%) tested in technical triplicate. Two controls were included per solvent; a positive control without solvent and a media control which allowed for appropriate normalization. Solvent exposure growth curves allowed for choosing the maximum amount of solvent concentration that strains would sustain while maintaining relative viability in order to determine a range of steroid concentrations which could be used.
A tertiary growth curve was performed to test the toxicity levels of steroid specific to P. simplex. The strain was incubated under microplate reader conditions previously mentioned at a starting OD determined by the first growth curve and the highest solvent concentration corresponding to the steroid of interest with steroid at ½ serial dilutions for a total of seven concentrations tested in singlet. Testosterone, progesterone, 17β-estradiol, hydrocortisone, and aldosterone were all dissolved in ethanol while estrone was dissolved in DMSO. Three controls were included for each steroid; a positive control with the highest tolerable solvent concentration (%), a positive control with media, and a media control which allowed for normalization. Steroid exposure growth curves allowed for choosing the maximum amount of steroid concentration that P. simplex would sustain while maintaining relative viability.

[2] = system: P. simplex bacteria (steroid responsive genome island, SRGI); assay: RNA-Seq screen of steroid treated P. simplex against solvent controls; type: cell-based, Pimelobacter simplex; conditions: Log2 fold change vs solvent control
From the text: as §1, §2, §3, §4

[3] = system: Pimelobacter simplex PinR (AIY20223.2; SEQ ID NO: 1), his-tagged (AIY-his6); assay: QD-FRET steroid sensor (QD-PinR + DNA-Cy5), steroid-induced TF-DNA unbinding; type: biochemical
Protocol: Fluorescent spectra were analyzed using MATLAB (Mathworks) and were fitted with a sum of 2 Gaussians (D=QD: FWHM=27 nm, λmax=607 nm; A=DNA-Cy5: FWHM=40 nm, λmax=669 nm). The area of each Gaussian was extracted and FD and FA are obtained respectively for the fluorescence of QD (donor) and Cy5 (acceptor).
Raw dose-response curves were obtained by plotting FA/FD as a function of the steroid concentration. Sensor output is the normalization of the fluorescent spectra of the donor and acceptor according to the following equation: […]
Non-normalized dose-response were fitted with Origin Pro 8 software with the non-linear equation: […]
The cross-reactivity of progesterone regarding the different steroids was calculated with the following equation: […]
CdSe/CdS/ZnS QDs were coated with a zwitterionic polymer bearing histamine anchoring functions (P1, SI). Once the hydrophobic QDs were transferred into H2O using a biphasic ligand exchange, his-tagged TFs were self-assembled on the QD surface to produce the QD-TF. Addition of the double stranded, Cy5-labeled TF-binding sequence completed probe assembly as the oligo binds to the TF in the absence of progesterone (PRG). The molar ratios of the QD, TF, and DNA in the sensor were controlled through the stoichiometric ratios of the mixed parts.
Two fluorescent spectra were recorded, one from the QDs and one from the Cy5 due to the FRET.
First, the DNA1 (most binding sequence) has been used to build the first biosensor, named sensor 1. For this sensor, a ratio of QD/TF/DNA of 1/4/18 was chosen. […] In order to homogenize the fluorescent signals in between batches and different sensor variations, FA/FD was normalized to give the signal output. Signal output is then plotted against PRG concentration to give a dose-response curve (FIG. 9C) This curve was fitted with the non-linear equation XX to obtain the half-maximal inhibitory concentration (IC50) (Table 13).
Description for a typical experiment, using a molar ratio of QD/TF/DNA=1/4/18. QDs in (275 uL, 0.15 uM in HEPES 1×, pH 7.6 with 1% BSA) were mixed with AIY-his6 (275 uL, 0.6 uM in HEPES 1× pH 7.6) at room temperature for 45 min. Then, the double-stranded DNA labelled with a Cy5 fluorescent probe at the 3′ and 5′ ends (275 uL, 2.7 uM in HEPES 1× pH 7.6) was added to the mixture. After 30 min, 220 uL of HEPES 1× pH 7.5 and 330 uL of 5× binding buffer (25 mM MgCl2, 25% glycerol, and 250 mg/L Invitrogen™ UltraPure™ Salmon Sperm DNA in Tris-HCl 0.1M) were added and the mixture is left 15 more min at RT.
50 uL of the sensor (QD/TF/DNA) was then splitted in 3×9 centrifuge tubes to which 10 uL of progesterone at the desired concentration is added. As such, the final concentration of QD/TF/DNA for the measurements is 25 nM/100 nM/450 nM. A 384 well plate was filled with 60 uL of each solution. The fluorescence intensity was monitored on a spectrofluorimeter from 535 nm to 800 nm exciting at 400 nm, equipped with a 450 nm long-pass filter in emission.

[4] = P. simplex, starting OD 0.005, constant solvent

Chain of PinR (A0A0A1DUF2 entry or part of it): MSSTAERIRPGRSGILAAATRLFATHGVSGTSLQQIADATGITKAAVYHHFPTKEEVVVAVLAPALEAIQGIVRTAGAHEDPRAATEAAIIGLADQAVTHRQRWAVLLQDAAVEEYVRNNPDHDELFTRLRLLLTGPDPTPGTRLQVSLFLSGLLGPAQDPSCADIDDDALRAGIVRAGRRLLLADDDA

Row | SMILES | IC50 (PinR) [nM] | % cross-reactivity (PinR) [%] | P (slope of fit) (PinR) | upregulation of genes inside the SRGI [1] | highest steroid concentration exhibiting normal growth profile (Pimelobacter simplex) [µM] | upregulation of genes inside the SRGI (in words) [2] | highest steroid concentration exhibiting normal growth profile (Pimelobacter simplex; [4]) [µM] | cross-reactivity (in words) ([3]; sensor 3 in HEPES 1×, 0 to 10 uM steroid) | effect on sensor binding/unbinding (in words) ([3]; QD:TF:oligo 1:4:6, [QD]=50 nM)
1 | C[C@]12CCC(=O)C=C1CC[C@@H]1[C@@H]2[C@@H](O)C[C@]2(C=O)[C@@H](C(=O)CO)CC[C@@H]12 [ALD, Aldosterone] | 289 ± 36 | 20 ± 2 | 1.65 ± 0.28 | observed | 175.00 | upregulation of genes inside the SRGI were observed |  |  | 
2 | C[C@]12CC[C@@H]3c4ccc(O)cc4CC[C@H]3[C@@H]1CCC2=O [ESN, Estrone] |  |  |  |  |  | not when exposed to 17β-estradiol and estrone | 87.50 | No cross-reactivity was observed | 
3 | C[C@]12CC[C@@H]3c4ccc(O)cc4CC[C@H]3[C@@H]1CC[C@@H]2O [ESD, 17β-Estradiol] |  |  |  |  |  | not when exposed to 17β-estradiol and estrone |  |  | no impact on the sensor binding/unbinding
4 | C[C@]12CC[C@H]3[C@@H](CCC4=CC(=O)CC[C@@]43C)[C@@H]1CC[C@@H]2O [testosterone, Testosterone] |  |  |  | observed |  | upregulation of genes inside the SRGI were observed | 700 |  | 
5 | C[C@]12CCC(=O)C=C1CC[C@@H]1[C@@H]2[C@@H](O)C[C@@]2(C)[C@H]1CC[C@]2(O)C(=O)CO [CRT, Hydrocortisone] | 180 ± 19 | 33 ± 3 | 1.23 ± 0.13 | observed | 21.88 | upregulation of genes inside the SRGI were observed |  |  | 
